Data taken from the NIST ThermoML archive (doi:10.1016/j.jct.2015.09.028).

Assays:
[1] = 93 kPa, Liquid; for viscosity: Concentric cylinders viscometry; for mass density: Vibrating tube method
[2] = molar heat capacity at constant pressure; details: Liquid, Flow calorimetry

c1ccc(Oc2ccccc2)cc1 [diphenyl ether]
[1]
Details	mass density [kg/m3]	viscosity [mPa·s]
303.15 K	1065.5	3.33
308.15 K	1061.2	2.96
313.15 K	1056.9	2.65
323.15 K	1048.2	2.17
333.15 K	1039.6	1.82
343.15 K	1030.9	1.54
353.15 K	1022.3	1.33
363.15 K	1013.7	1.16
373.15 K	1005.2	1.03

molar heat capacity at constant pressure [J/K/mol], [2]
Details	100 kPa	5000 kPa	10000 kPa	15000 kPa	20000 kPa	25000 kPa
313.15 K	274.37	273.52	273.18	272.5	272.16	–
333.15 K	286.97	285.95	284.93	284.59	283.39	282.71
353.15 K	299.05	298.03	296.84	296.33	295.48	294.63
